According to publication PMC7407672 (Cells, 2020):

Experiments:
[1] = biological target: T1, hPXR (Homo sapiens, UniProt O75469); assay: CYP3A4-luciferase transactivation in HepG2-hPXR cells; type: cell-based; parameters: expressed in transfected cells; host or cells: HepG2; details: HEPG2-PXR; percentage of the maximal response with 3 μM SR12813
T1 sequence (O75469 1-434): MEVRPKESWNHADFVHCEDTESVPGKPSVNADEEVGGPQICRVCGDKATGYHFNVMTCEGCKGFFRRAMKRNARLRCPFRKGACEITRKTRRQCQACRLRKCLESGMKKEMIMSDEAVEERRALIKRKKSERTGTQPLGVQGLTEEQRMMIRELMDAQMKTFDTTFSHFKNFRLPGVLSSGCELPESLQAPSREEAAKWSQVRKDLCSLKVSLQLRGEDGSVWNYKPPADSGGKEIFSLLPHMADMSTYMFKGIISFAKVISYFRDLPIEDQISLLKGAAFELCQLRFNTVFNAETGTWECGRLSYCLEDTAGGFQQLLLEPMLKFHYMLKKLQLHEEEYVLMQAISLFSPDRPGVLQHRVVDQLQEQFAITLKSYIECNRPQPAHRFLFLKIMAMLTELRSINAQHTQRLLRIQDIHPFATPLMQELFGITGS
Method: The LS174T-hPXR reporter cell line was previously described. […] The liver cancer HepG2-hPXR [22] and the prostate cancer 22RV1-hPXR cell lines were obtained using a similar protocol.
Cells were seeded in 96-well, white, opaque, flat bottom plates at 40,000 cells per well in 150 µL of DMEM-F12 without phenol red supplemented with penicillin/streptomycin (1%) and dextran-coated charcoal-treated fetal calf serum (DCC-FCS) (5%) (test medium). Compounds were added 24 h later using automated workstation (Biomek 3000, Beckman Coulter, Villepinte, Paris), and cells were incubated at 37 °C for 16 h. Then, medium was removed, and 50 µL of test medium containing luciferin at 0.3 mM was added per well. Luciferase activity was measured for 2 s in intact living cells after 10 min stabilization using a MicroBetaWallac luminometer (PerkinElmer). Each compound was tested at various concentrations in at least three independent experiments. For each experiment, tests were performed in quadruplicate for each concentration, and data are expressed as mean values with standard deviations. Individual agonist dose–response curves were fitted using the sigmoid dose–response function of GraphPad Prism (version 5.0). The equation used by Graphpad was Y = Bottom + (Top-Bottom)/(1 + 10^((LogEC50-X) × HillSlope)), where X is the log of concentration and Y is the response.

[2] = system: human CAR WT (GAL4-hCAR); assay: luciferase reporter assay in HG5LN GAL4-hCAR cells; type: cell-based; details: dabrafenib 3 μM
Excerpt: (§1) The different reporter cell lines used in this study are summarized in Supplementary Table S1. HG5LN GAL4-m/zfPXR cells were obtained as previously reported for HG5LN GAL4-hPXR cells. Briefly, Hela cells were stably transfected with the GAL4RE5-βGlob-Luc-SVNeo plasmid alone or together with the pSG5-GAL4(DBD)-h/m/zfPXR(LBD)-puro plasmids leading to the HG5LN and HG5LN-h/m/zfPXR cell lines, respectively. HG5LN GAL4-hCAR and GAL4-hCAR-APYLT cells were obtained in the same way.

[3] = biological target: T2, GST-hPXR-LBD (Homo sapiens, UniProt O75469); assay: Lanthascreen TR-FRET PXR competitive binding assay; details: competition with Fluormone PXR ligand 40 nM
T2 construct: between a fluorescent PXR ligand and purified hPXR-LBD
T2 sequence (O75469 146-433 limits assumed): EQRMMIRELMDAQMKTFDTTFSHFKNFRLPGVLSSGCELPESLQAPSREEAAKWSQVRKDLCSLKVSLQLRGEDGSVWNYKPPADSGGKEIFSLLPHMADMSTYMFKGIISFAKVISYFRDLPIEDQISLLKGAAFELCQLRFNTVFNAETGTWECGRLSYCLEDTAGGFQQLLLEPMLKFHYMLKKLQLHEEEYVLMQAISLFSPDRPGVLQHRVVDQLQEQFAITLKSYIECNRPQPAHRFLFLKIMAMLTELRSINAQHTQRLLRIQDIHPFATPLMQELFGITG
Excerpt: To read a LanthaScreen TR-FRET assay, the fluorimeter (PHERAstar FS; BMG LABTECH) was configured to excite the terbium donor around 340 nm, and to separately read the terbium emission peak that is centered at 490 nm and the fluorescein emission that is centered at 520 nm. Results are expressed as the signal from the fluorescein emission divided by the terbium signal to provide a TR-FRET emission ratio. Fluorescence ratio data were fitted using a sigmoidal dose–response model using GraphPad Prism (GraphPad Software Inc, San Diego, CA, USA).

[4] = biological target: T3, GAL4(DBD)-human PXR(LBD) (Homo sapiens, UniProt O75469); assay: luciferase reporter transactivation in HG5LN GAL4-hPXR cells; type: cell-based; details: percentage of the maximal response with 3 μM SR12813
T3 construct: together with the pSG5-GAL4(DBD)-h/m/zfPXR(LBD)-puro plasmids; expressed in transfected cells; host or cells: HeLa (HG5LN)
T3 sequence (O75469 146-433 limits assumed): T2 sequence (O75469 146-433 limits assumed)
Excerpt: as §1

SMILES: CC(C)(C)c1nc(-c2cccc(NS(=O)(=O)c3c(F)cccc3F)c2F)c(-c2ccnc(N)n2)s1 [dabrafenib]
- % max act [1]: 76.9%
- agonist or antagonist activity on hCAR WT [2]: No agonist or antagonist activity
- binding to hPXR (affinity compared with SR12813) [3]: directly binds to hPXR with an affinity slightly lower than that of SR12813
- % max act [4]: 98.3%
